“And” between values parts separate entries of the source, which are not always exact repeats. Identical values can stand only once. Inconclusive results and toxic doses are left out. Cut-off read from the data, not from the text of the source: active = T/C of 150% or more; inactive = T/C below 125%.
Test system: L1210 leukemia ip in BDF1 mice, survival T/C
Test: NCI In Vivo Anticancer Drug Screen. Data for tumor model L1210 Leukemia (intraperitoneal) in B6D2F1 (BDF1) mice
Conditions: endpoint: mean survival time, higher = longer survival
How it was run: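 Value reflects the ratio of survival in compound-treated mice to survival in vehicle-treated controls, with both groups carrying the same transplanted tumor.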

[1] = dose: 100.0 mg/kg/injection, schedule: Q01DX001 (ip), vehicle: saline
[2] = dose: 200.0 mg/kg/injection, schedule: Q01DX001 (ip), vehicle: saline
[3] = dose: 400.0 mg/kg/injection, schedule: Q01DX001 (ip), vehicle: saline
[4] = dose: 100.0 mg/kg/injection, schedule: Q01DX009 (ip), vehicle: saline with Tween-80
[5] = dose: 100.0 mg/kg/injection, schedule: Q04DX003 (ip), vehicle: Klucel (hydroxypropylcellulose) (HPC)
[6] = dose: 200.0 mg/kg/injection, schedule: Q01DX009 (ip), vehicle: saline with Tween-80
[7] = dose: 200.0 mg/kg/injection, schedule: Q04DX003 (ip), vehicle: Klucel (hydroxypropylcellulose) (HPC)
[8] = dose: 400.0 mg/kg/injection, schedule: Q01DX009 (ip), vehicle: saline with Tween-80
[9] = dose: 400.0 mg/kg/injection, schedule: Q04DX003 (ip), vehicle: Klucel (hydroxypropylcellulose) (HPC)
[10] = dose: 100.0 mg/kg/injection, schedule: Q01DX001 (ip), vehicle: carboxymethylcellulose (CMC)
[11] = dose: 200.0 mg/kg/injection, schedule: Q01DX001 (ip), vehicle: carboxymethylcellulose (CMC)
[12] = dose: 400.0 mg/kg/injection, schedule: Q01DX001 (ip), vehicle: carboxymethylcellulose (CMC)
[13] = dose: 100.0 mg/kg/injection, schedule: Q01DX001 (ip), vehicle: saline with Tween-80
[14] = dose: 50.0 mg/kg/injection, schedule: Q01DX009 (ip), vehicle: Klucel (hydroxypropylcellulose) (HPC)
[15] = dose: 100.0 mg/kg/injection, schedule: Q01DX009 (ip), vehicle: Klucel (hydroxypropylcellulose) (HPC)
[16] = dose: 200.0 mg/kg/injection, schedule: Q01DX009 (ip), vehicle: Klucel (hydroxypropylcellulose) (HPC)
[17] = dose: 100.0 mg/kg/injection, schedule: Q04DX003 (ip), vehicle: saline
[18] = dose: 200.0 mg/kg/injection, schedule: Q04DX003 (ip), vehicle: saline
[19] = dose: 50.0 mg/kg/injection, schedule: Q04DX003 (ip), vehicle: saline

Measured: T/C

CC1(N)COP(=O)(NCCCN2CCOCC2)OC1 (stereo unspecified)
inactive: [1] 96 % of control | [2] 96 % of control | [3] 96 % of control

OC(C1CCCCC1)(C1CCCCC1)C1CCCCC1
inactive: [4] 101 % of control | [5] 91 % of control | [6] 96 % of control | [7] 92 % of control | [8] 96 % of control | [9] 96 % of control

Cn1c2ccccc2c(=O)c2c(O)cc3c(c21)C=CC(C)(C)O3
inactive: dose: 50.0 mg/kg/injection, schedule: Q01DX001 (ip), vehicle: carboxymethylcellulose (CMC) 98 % of control | [10] 90 % of control | [11] 88 % of control | [12] 88 % of control

CCC1=C(C)CN(C)c2ccccc21
inactive: [1] 100 % of control | [2] 100 % of control | [3] 94 % of control

Cc1cccc(SC(=O)Nc2cc([N+](=O)[O-])ccc2C)c1
inactive: [5] 92 % of control | [7] 98 % of control | [9] 97 % of control

CCCCOc1ccc(OC(=O)Nc2cccc(C(F)(F)F)c2)cc1
inactive: [4] 96 % of control | [6] 94 % of control | [8] 94 % of control

CC(CO)CCCC(C)C1C(O)CC2C3CCC4CC(O)CCC4(C)C3CCC21C (stereo unspecified)
inactive: dose: 100.0 mg/kg/injection, schedule: Q01DX001 (ip), vehicle: Klucel (hydroxypropylcellulose) (HPC) 88 % of control | dose: 200.0 mg/kg/injection, schedule: Q01DX001 (ip), vehicle: Klucel (hydroxypropylcellulose) (HPC) 88 % of control | dose: 400.0 mg/kg/injection, schedule: Q01DX001 (ip), vehicle: Klucel (hydroxypropylcellulose) (HPC) 91 % of control

OC(c1nc2ccccc2[nH]1)C(O)c1nc2ccccc2[nH]1 (stereo unspecified)
inactive: dose: 75.0 mg/kg/injection, schedule: Q01DX001 (ip), vehicle: saline 102 % of control | dose: 150.0 mg/kg/injection, schedule: Q01DX001 (ip), vehicle: saline 109 % of control | dose: 300.0 mg/kg/injection, schedule: Q01DX001 (ip), vehicle: saline 102 % of control

COc1ccc(Cl)cc1NC(=O)Oc1c(C)cccc1C
inactive: [13] 106 % of control | [4] 96 % of control | dose: 100.0 mg/kg/injection, schedule: Q04DX002 (ip), vehicle: saline with Tween-80 95 % of control and 89 % of control | dose: 200.0 mg/kg/injection, schedule: Q01DX001 (ip), vehicle: saline with Tween-80 90 % of control | [6] 98 % of control | dose: 200.0 mg/kg/injection, schedule: Q04DX002 (ip), vehicle: saline with Tween-80 95 % of control and 97 % of control | dose: 400.0 mg/kg/injection, schedule: Q01DX001 (ip), vehicle: saline with Tween-80 96 % of control | [8] 102 % of control | dose: 400.0 mg/kg/injection, schedule: Q04DX002 (ip), vehicle: saline with Tween-80 95 % of control and 98 % of control

S=c1[nH]ccn1-c1ccccc1
inactive: [10] 103 % of control | [11] 110 % of control | [12] 101 % of control

CC(=O)Nn1cnc2ccccc2c1=O
inactive: [14] 98 % of control | [15] 98 % of control | [16] 98 % of control

COCC(N)=O
inactive: dose: 100.0 mg/kg/injection, schedule: Q01DX009 (ip), vehicle: saline 95 % of control | [17] 107 % of control | dose: 200.0 mg/kg/injection, schedule: Q01DX009 (ip), vehicle: saline 97 % of control | [18] 107 % of control | dose: 400.0 mg/kg/injection, schedule: Q01DX009 (ip), vehicle: saline 97 % of control | dose: 400.0 mg/kg/injection, schedule: Q04DX003 (ip), vehicle: saline 101 % of control

COC(=O)c1cn2ccc(C(=O)c3ccccc3)cc2c1C(=O)OC
inactive: dose: 100.0 mg/kg/injection, schedule: Q04DX002 (ip), vehicle: Klucel (hydroxypropylcellulose) (HPC) 95 % of control | dose: 200.0 mg/kg/injection, schedule: Q04DX002 (ip), vehicle: Klucel (hydroxypropylcellulose) (HPC) 106 % of control | dose: 400.0 mg/kg/injection, schedule: Q04DX002 (ip), vehicle: Klucel (hydroxypropylcellulose) (HPC) 98 % of control

COc1ccc(/C(=N\N=C(N)N)C2CC2)cc1
inactive: dose: 120.0 mg/kg/injection, schedule: Q01DX Z (oral), vehicle: carboxymethylcellulose (CMC) 90 % of control

CN1C=CC(C(C(N)=O)c2ccccc2)c2ccccc21 (stereo unspecified)
inactive: [4] 95 % of control | [6] 92 % of control | [8] 92 % of control

Clc1c(CBr)c(Cl)c(CBr)c(Cl)c1CBr
inactive: dose: 25.0 mg/kg/injection, schedule: Q01DX009 (ip), vehicle: Klucel (hydroxypropylcellulose) (HPC) 90 % of control | [14] 87 % of control | [5] 88 % of control

Nc1cc(N)nc(S(=O)O)n1
inactive: dose: 25.0 mg/kg/injection, schedule: Q04DX003 (ip), vehicle: saline 93 % of control | dose: 44.0 mg/kg/injection, schedule: Q01DX Z (ip), vehicle: saline 119 % of control | [14] 95 % of control | [19] 92 % of control | dose: 66.0 mg/kg/injection, schedule: Q01DX Z (ip), vehicle: saline 113 % of control | [15] 95 % of control | dose: 100.0 mg/kg/injection, schedule: Q01DX Z (ip), vehicle: saline 101 % of control | [5] 107 % of control | [17] 101 % of control | [16] 89 % of control

O=C1CCSC(=S)N1c1cccc(C(F)(F)F)c1
inactive: dose: 25.0 mg/kg/injection, schedule: Q04DX003 (ip), vehicle: saline with Tween-80 101 % of control | dose: 50.0 mg/kg/injection, schedule: Q04DX003 (ip), vehicle: saline with Tween-80 104 % of control | dose: 100.0 mg/kg/injection, schedule: Q04DX003 (ip), vehicle: saline with Tween-80 104 % of control

CC(=O)NC1CCCC(C)N1 (stereo unspecified)
inactive: [19] 98 % of control | [1] 110 % of control | [17] 104 % of control | [2] 100 % of control | [18] 96 % of control

O=C(CC1OCCO1)c1ccccc1
inactive: dose: 50.0 mg/kg/injection, schedule: Q04DX002 (ip), vehicle: saline 95 % of control | dose: 100.0 mg/kg/injection, schedule: Q04DX002 (ip), vehicle: saline 89 % of control | dose: 200.0 mg/kg/injection, schedule: Q04DX002 (ip), vehicle: saline 95 % of control | dose: 400.0 mg/kg/injection, schedule: Q04DX002 (ip), vehicle: saline 95 % of control

O=c1[nH]cnc2[nH]ncc12
inactive: dose: 50.0 mg/kg/injection, schedule: Q01DX001 (ip), vehicle: saline with Tween-80 95 % of control | dose: 69.0 mg/kg/injection, schedule: Q01DX015 (ip), vehicle: carboxymethylcellulose (CMC) 94 % of control | [10] 106 % of control | [13] 105 % of control | [1] 101 % of control | dose: 104.0 mg/kg/injection, schedule: Q01DX015 (ip), vehicle: carboxymethylcellulose (CMC) 95 % of control | dose: 156.0 mg/kg/injection, schedule: Q01DX015 (ip), vehicle: carboxymethylcellulose (CMC) 96 % of control | [11] 102 % of control | dose: 234.0 mg/kg/injection, schedule: Q01DX015 (ip), vehicle: carboxymethylcellulose (CMC) 94 % of control | dose: 351.0 mg/kg/injection, schedule: Q01DX015 (ip), vehicle: carboxymethylcellulose (CMC) 95 % of control

Source: PubChem BioAssay AID248 (DTP/NCI, 2004)
